In series [1] the test system is Hela cells. Set-up: method as in Khanam et al., 2019. Conditions: ref Khanam et al., 2019; cited from earlier work.
Series [2] concerns Hela cells. Put plainly: MTT cell viability assay, Hela cells. Format: cell-based. Conditions: Homo sapiens, 48 h; for viability at 10 µM: mean ± SEM (n = 3).
Series [3] relates to Hela cells. Put plainly: Plate clone formation assay. It is filed as cell-based, human. Conditions: 0, 5, 10, 20 μM, dose-dependent. How it is done: (§1) To validate the impact of compound c13 on cell proliferation, plate clone formation assay was performed.
Hela cells with a density of 5 × 10^2 cells/well were seeded in 6-well plates overnight. The cells were treated with different concentrations of compounds (0, 5, 10, and 20 μM) were added and continued to be cultured at 37°C with 5% CO2. When more than 50 cell clone formations were visible, the culture medium was discharged. Then, the cells were fixed with 2 mL of 4% paraformaldehyde for 15 min and stained with 2 mL of crystal violet solution at room temperature for 15 min. A microscope was used to take photos and count the number of cell clones.

Series [4] has as its system Bax, Bcl-2, caspase 9, caspase 3, PARP1 in Hela cells. The series can be described thus: Western blot of apoptosis-associated proteins in Hela cells. It is filed as cell-based, human. As to conditions: 10 and 20 μM. An excerpt:
To explore whether the induction of apoptosis caused by compound c13 was associated with the activation of the apoptosis-related protein, a western blot was used to detect the expression of the protein including Bax and Bcl-2. […] Furthermore, the ratio of Bax to Bcl-2 was raised after being treated with compound c13, leading to apoptosis in Hela cells.
To determine the potential function of compound c13 in the regulation of the apoptosis signaling pathway, downstream key proteins containing caspase 3, caspase 9, and PARP1 were detected by western blot. […] Besides, a corresponding increase in the levels of cleaved-caspase 3, and cleaved-PARP1 was observed (Figure 6).
Whole cell extracts were prepared by lysing cells on ice for 30 min using RIPA lysis buffer (Beyotime Biotechnology, Shanghai, China). Following centrifugation at 12, 000 g for 15 min at 4°C, the supernatants were collected. The protein content concentrations of samples were determined according to the manufacturer’s protocol for the BCA protein assay kit (Thermo Scientific, Rockford, IL, United States).
Equal amounts of protein were resolved using sodium dodecyl sulfate polyacrylamide gel electrophoresis (SDS-PAGE) and subsequently transferred to a 0.2 μm nitrocellulose membrane. The membranes underwent blocking for a minimum of 1 h in 5% skimmed milk diluted in TBST. Subsequently, the blots were incubated overnight at 4°C with primary antibodies. Primary antibodies used were include, Bcl-2 (ABclonal, Wuhan, China), Bax (Wanleibio, Shenyang, China), Caspase 9/p35/p10 antibody (Proteintech, Wuhan, China), Caspase 3/p17/p19 (Proteintech, Wuhan, China), PARP-1 (Proteintech, Wuhan, China), β-actin (Sigma-Aldrich, St Louis, MO, United States). Following incubation, the membranes were washed three times with TBST buffer and then incubated with secondary antibodies (Kangchen Biotechnology, Shanghai, China) for 1 h at room temperature. Subsequently, the blots were washed three times with TBST buffer and developed using an enhanced chemiluminescence reagent (Millipore Corporation, Bedford, MA, United States). The intensity of each protein band was quantitatively analyzed using ImageJ software.
In general terms: A western blot detects proteins with antibodies after separation by electrophoresis.

A further series deals with NIH3T3 cells. The series can be described thus: MTT cell viability assay, NIH3T3 cells. It is filed as cell-based. Conditions: Mus musculus, 48 h, tested 0-40 μM. How it is done:
(§2) To define the effects of compound c13 on cancer cell proliferation, the half-maximal inhibitory concentration (IC50) of compound c13 in Hela cells was calculated. Hela cells were treated with compound c13 at different concentrations (0 μM, 1 μM, 5 μM, 10 μM, 20 μM, and 40 μM) respectively for 48 h, and the cell viability was detected using the MTT method. […]. […] In contrast, its effect on the proliferation of HEK293T and NIH3T3 cells was minimal, with both IC50 values exceeding 100 μM.
(§3) Figure S1. The effect of compound c13 on the survival rate of HEK293T, NIH3T3, and Hela cells. compound c13 (0, 10, 20, and 40 μM) was used to treat HEK293T, NIH3T3, and Hela cells for 48 hours, and the cell survival rate was detected using the MTT method (n=3).

The test system of another series is HEK293T cells. The series can be described thus: MTT cell viability assay, HEK293T cells. It is filed as cell-based. Conditions: Homo sapiens, HEK-293T, 48 h, tested 0-40 μM. How it is done: as §2, §3
Series [5] has as its system Hela cells. Put plainly: Morphological profiles of Hela cells by microscope. It is filed as cell-based, human. As to conditions: 0, 5, 10, 20 μM. How it is done: FIGURE 2 Anti-proliferative Effects of compound c13 on Hela cells. (A) Dose-dependent cytotoxicity of compound c13, assessed at concentrations ranging from 0 to 40 μM on HeLa cells. Cell viability was plotted against the logarithm of compound c13 concentrations (n = 3). (B) Morphological profiles of Hela cells were taken by microscope after treatment with compound c13 at different doses (0, 5, 10, and 20 μM) (n = 3). (C) Representative photomicrographs of plate colony formation assay data with compound c13 at different doses (0, 5, 10, and 20 μM) (n = 3).
as §1

Series [6] relates to Hela cells. The series can be described thus: Cell cycle analysis by flow cytometry (PI). It is filed as cell-based, human. As to conditions: 48 h. The procedure:
To further evaluate the effect of compound c13 on the cell cycle, the cell cycle distributions of Hela cells after treatment of compound c13 were detected by flow cytometry.
Hela cells with a density of 1.5 × 10^5 cells/well were seeded in 12-well plates overnight. Different concentrations of compounds (0, 5, 10, and 20 μM) were added to treat the cells for 48 h. After treatment, the cells were washed with PBS and then the cells were fixed with 70% ethanol at −20°C overnight. Subsequently, the cells were stained with PI staining solution containing 10 μg/mL RNAase for 30 min in the dark. The data was collected by BD Accuri C6 Plus flow cytometry (BD Biosciences). All analyses were performed with FlowJo software.
In general terms: In flow cytometry, cells or beads pass a laser one at a time.

The test system of series [7] is Hela cells. Put plainly: Apoptosis assay, Annexin V-FITC/PI flow cytometry. Format: cell-based, human. Conditions: 20 μM, 48 h. How it is done: To assess whether the anti-proliferative effects of compound c13 on Hela cells were associated with apoptosis, cell apoptosis after treatment of compound c13 was measured using Annexin V-FITC and propidium iodide (PI) staining by flow cytometer. […] Compared with the normal control group, compound c13 at 20 μM markedly raised the apoptotic ratio of Hela cells to 62.03% ± 9.48%.
Hela cells with a density of 1.5 × 10^5 cells/well were seeded in 12-well plates overnight for adhesion. The cells were treated with different concentrations of compounds (0, 5, 10, and 20 μM) for 48 h. After treatment, the cells were washed with PBS and stained with Annexin V-FITC and Propidium Iodide (PI) for 15 min in the dark. Cell apoptosis rate was detected by BD Accuri C6 Plus flow cytometry (BD Biosciences) and all analyses were performed with FlowJo software.

In series [8] the test system is Hela cells. Set-up: method as in Huang et al., 2022. Conditions: 72-h treatment; ref Huang et al., 2022; read-out: IC50, cytotoxicity to Hela cells; cited from earlier work.

Structures are written as SMILES. Converted amounts (≈) assume the structure as drawn. Where two headings read alike, the source gives them in different places.

What is called viability is a per cent measure of how many cells are alive, often set against a control. Low values mean more harm to the cells, high ones less harm to the cells. Usually IC50 stands for the concentration needed to halve the response being measured.

In the case of `Nc1ccc(-c2nnc(CN3CCN(C(c4ccccc4)c4ccccc4)CC3)o2)cc1` [4d, N-benzhydryl-4-((5-(4-aminophenyl)-1,3,4-oxadiazol-2-yl)methyl)piperazine], the “IC50, HeLa cells” value in the series with Hela cells [1] was 28.13 ± 0.21 µg/mL (≈ 66.1 µM).
In the series on Hela cells [2], `COc1cccc2c1C(=O)c1c(O)c3c(c(O)c1C2=O)C[C@@](O)(C(=O)CO)C[C@@H]3O[C@H]1C[C@H](N)[C@H](O)[C@H](C)O1` [Doxorubicin, reference compound] yielded a viability at 10 µM of 11.9 ± 1.2%.
On to `COc1cc2ncnc(Nc3ccc(F)c(Cl)c3)c2cc1OCCCN1CCOCC1` [Gefitinib], for which, in the series on Hela cells [2], the viability at 10 µM stood at 75.9 ± 2.88%.
With `COc1cc2ncnc(Nc3cccc(-c4cn(Cc5cc(Br)cc(Br)c5)nn4)c3)c2cc1OCCCN1CCOCC1` [c13, N-(3-(1-(3,5-dibromobenzyl)-1H-1,2,3-triazol-4-yl)phenyl)-7-methoxy-6-(3-morpholinopropoxy)quinazolin-4-amine], in the series on Hela cells [3], the “Colony formation ability of Hela cells” value is listed as “significantly inhibited the colony formation ability”. For the same compound, in series [4], the “Level of cleaved-PARP1” value was “increase”, the “Level of cleaved-caspase 3” value was “increase”, the “Level of cleaved-caspase 9” value is on record as “tendency of upregulation but had no significant difference” and the “Protein expression of pro-apoptotic Bax” value is reported as “enhanced”. For the same compound, in [4], the “Protein level of anti-apoptotic Bcl-2” value is recorded as “diminished” and the “Ratio of Bax to Bcl-2” value is on record as “raised”. In series [4] (vs control group), the “Protein level of full-length PARP1” value is on record as “decreased”, the “Protein level of full-length caspase 3” value is listed as “decreased” and the “Protein level of full-length caspase 9” value was “decreased”. The compound further returned an IC50 in the series on NIH3T3 cells above 100 µM. The IC50 in the series on HEK293T cells was above 100 µM. In addition, the “Morphological changes of Hela cells” value in the series with Hela cells [5] is reported as “severe morphological changes”. Besides, the “Proportion of the G1 phase” value in the series with Hela cells [6] (20 μM, printed as % of control group) is on record as 52.05% ± 2.85%. In addition, the “Percentage of cells in the G2/M phase” value with Hela cells [6] (10 and 20 μM) is “upregulated”. In addition, in the series on Hela cells [7], the “Apoptotic ratio of Hela cells” value is 62.03% ± 9.48%. The compound also gave a viability at 10 µM in the series with Hela cells [2] of 32.6 ± 8.61%. Also, the IC50 in the series with Hela cells [2] (read-out: IC50 against Hela cells) amounted to 5.66 ± 0.35 µM.
`C[C@]12CC[C@@H]3c4ccc(O)cc4CC[C@H]3[C@@H]1CC[C@@H]2O` [β-estradiol]: in the series with Hela cells [8], the IC50 was 18.7 ± 1.57 µM.

Source of the values: article PMC11802567, “Anti-cancer activity of synthetic gefitinib-1,2,3-triazole derivatives against Hela cells via induction of apoptosis” (Frontiers in Chemistry, 2025).
